“And” between values parts separate entries of the source, which are not always exact repeats. Equal values may be shown once.
How the values were obtained:
patients with MDD [1] = assay: Toronto side effects scale (TSES), treatment-related side effects; assay type: in vivo, human; details: Week 16
Description: The Toronto side effects scale (TSES), administered on Weeks 2, 4, 10, 12, and 16, is a clinical instrument designed to assess the frequency and severity of treatment-related side effects on 5-point Likert scales. The “intensity” score is derived by multiplying the frequency and severity of each side effect. The items assessed can be broadly categorized into the central nervous system (CNS), gastrointestinal (GI), and sexual side effects, as well as weight gain (Table S1)[28]. The primary outcomes for side effects were both dichotomous and continuous: (1) absence or presence of side effects within the four categories on the last visit of Phases I and II and (2) the intensity of each category of side effect across visits during each Phase.
(§1) We assessed the dichotomous measures of response (responder vs. non-responder and remitter vs. non-remitter) and side effects (present vs. absent) for the last timepoint in Phases I and II using logistic regression models with total MADRS score at baseline included as a covariate. Given the availability of biweekly MADRS scores and multiple time points for TSES, continuous measures of response (percentage of symptom improvement) and side effects (intensity of each category of side effects) were assessed using linear mixed-effects models that included interactions of CYP2C19 and CYP2D6 metabolizer groups with timepoint, and recruitment site and individual as random effects variables.
(§2) Using Spearman’s rank correlation, we explored whether measures of unadjusted serum concentrations were associated with symptom improvement and the intensity of side effects during Phase I and II.

CYP2D6 = details: cited from earlier work
patients with MDD [2] = assay: MADRS response, remission and symptom improvement (CAN-BIND-1 trial); assay type: in vivo, human; design: key to Estimate for Week, percentage symptom improvement (MADRS), mixed effects model / Estimate for CYP2C19 IM+PM, percentage symptom improvement (MADRS), mixed effects model / Estimate for CYP2C19 RM+UM, percentage symptom improvement (MADRS), mixed effects model / Estimate for CYP2D6 IM+PM, percentage symptom improvement (MADRS), mixed effects model: % points of improvement = (baseline MADRS − MADRS)/baseline; details: for share of the effect of CYP2C19 IM+PM phenotype on symptom improvement mediated by ESCadj serum concentrations: ESC-Only, bootstrap mediation analysis; for cumulative difference in symptom improvement from baseline between CYP2C19 NMs and IMs: at trial end (Week 16)
Experimental: (§3) The 16-week study protocol consisted of two phases following screening and baseline visits. […] Blood samples were collected on Weeks 2, 10, and 16 to measure medication levels and on Week 4 for pharmacogenetic analyses. The methods used for the quantification of serum levels of drug and metabolite concentrations is described in the Supplementary Methods.
Depressive symptoms were assessed using MADRS every 2 weeks from Week 0 to 16. The primary outcomes for response were: (1) response status (responder versus non-responder) on the last visit of Phases I and II (i.e., Week 8 and 16), and (2) the percentage of symptom improvement across visits during Phases I and II. Remission status (remitter versus non-remitter) at the end of Phases I and II was a secondary outcome for a response. These response outcomes are described in the Supplementary Methods.
as §1, §2
Description of measures of response outcome
Response status signifies the classification of patients as “responder” or “non-responder” if MADRS reduction of ≥50% or <50% from baseline was reached, respectively. For remission status, patients are classified as “remitter” if they achieved a MADRS total score of 10 or less; otherwise, they are classified as “non-remitter”. The percentage of symptom improvement was calculated by subtracting the total MADRS score from the baseline MADRS score and then dividing by the baseline MADRS score for each of the eight time points. These measures of response were selected, since continuous measures, such as percentage symptom improvement, capture more information and have higher power, whereas dichotomous measures, such as response status, has a particular clinical relevance since it is associated with MDD prognosis.
Post-hoc mediation analyses […]
strength of the association between the CYP2C19 or CYP2D6 metabolizer groups (predictor variable) and measures of treatment response or side effect (outcome variable) must be attenuated or rendered non- […]
mediation, respectively.1,2 R package “Mediation”3 and “lavaan”4 was used for continuous and binary variables, respectively, to perform nonparametric bootstrap analyses with 5000 iterations to calculate the estimate of the […]
1Baron RM, Kenny DA. The moderator–mediator variable distinction in social psychological research: Conceptual, strategic, and statistical considerations.
2MacKinnon DP, Lockwood CM, Hoffman JM, West SG, Sheets V. A Comparison of Methods to Test Mediation and Other Intervening Variable Effects.
3Tingley D, Yamamoto T, Hirose K, Keele L, Imai K, Trinh M et al. mediation: Causal Mediation Analysis. […]
project.org/package=mediation (accessed 7 Apr2021).
4Savalei V, Rosseel Y. Computational Options for Standard Errors and Test Statistics with Incomplete Normal and Nonnormal

[3] = Dose-adjusted serum concentrations of drug and metabolite (LC-MS/MS) by CYP2C19 and CYP2D6 metabolizer group; assay type: in vivo, human; details: for B, ESCadj concentrations in serum, CYP2C19 RM+UM / B, ESCadj concentrations in serum, CYP2D6 IM+PM / B, ESCadj concentrations in serum, CYP2C19 IM+PM: vs NM
Description: as §3
Serum concentrations were adjusted for dosage (i.e., ng/mL/mg). Sampling time (i.e., hours since the last dose) was entered as a covariate in the regression models to account for when the medication was taken.
The CYP2C19 metabolizer group was not included as a fixed effect covariate, as CYP2C19 is not known to be involved in the metabolism of ARI. […]
Collection of blood samples and quantification of serum drug and metabolite concentrations Participants self-reported the time at which the last dosage of the study medication was taken during the collection of the blood samples. […]
major metabolites, (S-DCT) and (DHA), were performed at the CAMH Clinical Laboratory using LC-MS/MS technology. Briefly, a mix of deuterated internal standards (Cerilliant) was added to 100 µL of each serum specimen, calibrator (Cerilliant) and quality control (MassCheck Antidepressants/Neuroleptics, Level 1 and Level 2). Proteins were precipitated with 300 µL of 9:1 Acetonitrile:Methanol (Sigma-Aldrich) followed by 5 min centrifugation at 9000 rpm. 25 µL of each supernatant was diluted with 200 µL of 0.1% Formic acid (Sigma-Aldrich) and then analyzed on the LC-MS/MS platform consisting of ThermoFisher TSQ Quantum Ultra mass spectrometer coupled with ThermoFisher Surveyor LC pump and HTC PAL autosampler fitted with a Kinetex F5 2.6 µm, 100 x 2.1 mm column (Phenomenex). Six minute gradient elution with 0.1% Formic Acid (mobile phase A) and Acetonitrile (mobile phase B) was applied. Collision energies ranged from 14 to […]
calibration curve ranging from 10 to 1000 ng/mL for each analyte.
Vendor nominal means for quality controls were used to assess the assay accuracy for each of the four analytes […]
precision was considered acceptable assay performance.
Data was analyzed with ThemoFisher XCalibur software.

[4] = vs NM, Phase II, by treatment arm

share of the effect of CYP2C19 IM+PM phenotype on symptom improvement mediated by ESCadj serum concentrations (patients with MDD [2]; Phase II): 45%
share of the effect of CYP2C19 IM+PM phenotype on symptom improvement mediated by ESCadj serum concentrations (patients with MDD [2]; Phase II, listed as ESC-Only): about 45%
higher mean ESCadj concentrations, CYP2C19 IM + PMs compared to NMs ([3]; Week 2 (Phase I)): 42.9%
difference in ESCadj concentrations between CYP2C19 NMs and IM + PMs ([3]; Week 10, ESC + ARI): 39.6%
higher levels of ESCadj in serum, CYP2D6 IM + PMs compared to NMs ([3]; Week 10, ESC-Only): 58.9%
difference in ESCadj concentrations between CYP2C19 NMs and IM + PMs ([3]; Week 16, ESC + ARI): 58.2%
higher levels of ESCadj in serum, CYP2D6 IM + PMs compared to NMs ([3]; Week 16, ESC-Only): 59.2%
ESC levels in CYP2D6 IM+PMs, ESC+ARI compared to ESC-Only ([3]; Week 16, ARI coadministration): lower
ESCadj serum levels in CYP2D6 NMs, ESC + ARI compared to ESC-Only ([3]; Weeks 10 and 16, ARI coadministration): significantly higher
B, ESCadj concentrations in serum, CYP2C19 RM+UM ([3]; Week 2 (Phase I)): -0.05
B, ESCadj concentrations in serum, CYP2D6 IM+PM ([3]; Week 2 (Phase I)): 0.31
B, ESCadj concentrations in serum, CYP2C19 IM+PM ([3]; Week 2 (Phase I), linear regression, dose-adjusted): 0.59
B, ESCadj concentrations in serum, CYP2C19 IM+PM ([3]; Week 10, ESC+ARI arm): 0.69
B, ESCadj concentrations in serum, CYP2C19 RM+UM ([3]; Week 10, ESC+ARI arm): 0.01
B, ESCadj concentrations in serum, CYP2D6 IM+PM ([3]; Week 10, ESC+ARI arm): -0.37
B, ESCadj concentrations in serum, CYP2C19 IM+PM ([3]; Week 10, ESC-Only arm): 0.65
B, ESCadj concentrations in serum, CYP2C19 RM+UM ([3]; Week 10, ESC-Only arm): 0.14
B, ESCadj concentrations in serum, CYP2D6 IM+PM ([3]; Week 10, ESC-Only arm): 0.71 and 0.65
B, ESCadj concentrations in serum, CYP2C19 IM+PM ([3]; Week 16, ESC+ARI arm): 0.77
B, ESCadj concentrations in serum, CYP2C19 RM+UM ([3]; Week 16, ESC+ARI arm): 0.17
B, ESCadj concentrations in serum, CYP2D6 IM+PM ([3]; Week 16, ESC+ARI arm): -0.32
B, ESCadj concentrations in serum, CYP2C19 IM+PM ([3]; Week 16, ESC-Only arm): 0.66
B, ESCadj concentrations in serum, CYP2C19 RM+UM ([3]; Week 16, ESC-Only arm): -0.10
SMILES: CN(C)CCC[C@@]1(c2ccc(F)cc2)OCc2cc(C#N)ccc21 [ESC, Escitalopram]
odds of reporting a CNS side effect, CYP2D6 NMs compared to IM + PMs (factor) (patients with MDD [1]): 7.69
odds of reporting decreased sleepiness, CYP2D6 NMs compared to IM + PMs (patients with MDD [1]): 25.53
odds of reporting sweating, CYP2D6 NMs compared to IM + PMs (patients with MDD [1]; listed as ESC-Only): 29.21
inhibition of CYP2D6 in vitro (CYP2D6): weak inhibitors
Estimate for Week, percentage symptom improvement (MADRS), mixed effects model (patients with MDD [2]; Phase I (Weeks 0–8)): 4.14
Estimate for Week, percentage symptom improvement (MADRS), mixed effects model (patients with MDD [2]; Phase II (Weeks 8–16), by treatment arm): 1.47
cumulative difference in symptom improvement from baseline between CYP2C19 NMs and IMs (patients with MDD [2]): 11.5%
cumulative difference in symptom improvement from baseline between CYP2C19 NMs and IMs (patients with MDD [2]; listed as ESC-Only): 11.52%
overall response rate (patients with MDD [2]; end of Phase I (Week 8), MADRS reduction ≥50% from baseline, 83/178): 46.62%
overall response rate (patients with MDD [2]; end of Phase II (Week 16), responders continued ESC, non-responders augmented with ARI, 122/178): 68.54%
Estimate for CYP2C19 IM+PM*Week, percentage symptom improvement (MADRS), mixed effects model (patients with MDD [2]; vs NM, Phase I): -1.48
Estimate for CYP2C19 IM+PM, percentage symptom improvement (MADRS), mixed effects model (patients with MDD [2]; vs NM, Phase I): 3.27
Estimate for CYP2C19 RM+UM*Week, percentage symptom improvement (MADRS), mixed effects model (patients with MDD [2]; vs NM, Phase I): -0.73
Estimate for CYP2C19 RM+UM, percentage symptom improvement (MADRS), mixed effects model (patients with MDD [2]; vs NM, Phase I): 3.74
Estimate for CYP2D6 IM+PM*Week, percentage symptom improvement (MADRS), mixed effects model (patients with MDD [2]; vs NM, Phase I): 0.31
Estimate for CYP2D6 IM+PM, percentage symptom improvement (MADRS), mixed effects model (patients with MDD [2]; vs NM, Phase I): 3.13
Estimate for CYP2C19 IM+PM, percentage symptom improvement (MADRS), mixed effects model (patients with MDD [2]; [4]): 26.15
Estimate for CYP2C19 RM+UM*Week, percentage symptom improvement (MADRS), mixed effects model (patients with MDD [2]; [4]): -1.04
Estimate for CYP2C19 RM+UM, percentage symptom improvement (MADRS), mixed effects model (patients with MDD [2]; [4]): 14.10
Estimate for CYP2D6 IM+PM*Week, percentage symptom improvement (MADRS), mixed effects model (patients with MDD [2]; [4]): -0.41
Estimate for CYP2D6 IM+PM, percentage symptom improvement (MADRS), mixed effects model (patients with MDD [2]; [4]): 1.19
Estimate (B) for CYP2C19 IM+PM*Week, average percentage change in MADRS from baseline, mixed effects model (patients with MDD [2]; vs NM, Phase II, by treatment arm, listed as ESC-Only): -2.34
average percentage change in MADRS from baseline lower in CYP2C19 IMs than in NMs (patients with MDD [2]; with every two-week assessment, Phase II, simple effects analysis): 2.54%
